Measured values reported in patent US20250115874A1, “Compositions And Methods For Making And Using Atherosclerotic Nanomatrix Vascular Sheets” (UAB RESEARCH FOUNDATION, priority 2023, published 2025).

Legend:
Assay type in all cases: cell-based, human
[1] = test system: foam cell formation on the VSA; assay: VSA foam cell assay (BODIPY staining); conditions: for foam cell generation (BODIPY): day 10, vs. control; for foam cell formation (BODIPY): day 10, vs. control 100%
Method: Experimental: (1) Fabrication of large-scale VSA high throughput culture systems: Individual VSAs were fabricated in each well of a 48-well tissue culture plate, following the method described in Example 4 (FIG. 7A, step 1), to create a high throughput culture system for testing drug effects on atherosclerosis. (2) The VSAs were divided into two groups: treated and untreated. (3) The treated group was treated with rosuvastatin (10 uM) or sirolimus (10 nM) by dilution of the stock solution into the “culture medium 7” on day 0 (FIG. 7B, step 2). (4) The VSAs, both treated and untreated, were co-cultured for 10 days with a fresh culture medium 7 with monocytes added on day 3 and day 7, respectively. (5) BODIPY staining was used to quantify foam cell formation: On day 10, a 10 mM BODIPY stock solution was prepared by dissolving in DMSO and stored at −20° C. Before the experiment, a 100 times diluted working solution was prepared from the stock solution using PBS. The VSAs were gently washed with PBS, then BODIPY was added, incubated in the dark for 30 min, imaged immediately using a microscope, and quantified at ex/em 485 nm/520 nm.
Experimental: (1) Fabrication of VSA high throughput culture systems: the large-scale VSA high throughput culture system was achieved by fabricating individual VSAs in each well of the 48-well tissue culture plate, following the same method described in Example 4 (FIG. 7A, step 1). (2) Divide the VSAs into two groups. (3) Treatment of VSAs in one group with curcumin (200 uM) or colchicine (100 nM) by dilution of the stock solution into the “culture medium 7” containing monocytes on day 0 (FIG. 7B, step 2). (4) The VSAs, treated or untreated, were co-cultured for 10 days. A fresh culture medium 7 was added to the co-culture system on day 3 and day 7, respectively. (5) BODIPY staining: On day 10, 10 mM BODIPY stock solution was prepared by dissolving in DMSO and stored at −20° C. Before the experiment, 100 times diluted working solution was prepared from stock solution using PBS. Then, the VSAs treated or untreated with curcumin (200 uM), and colchicine (100 nM) were gently washed with PBS, then BODIPY was added and incubated in the dark.
Experimental: (1) Fabrication of VSA high throughput culture systems: the large-scale VSA high throughput culture system was achieved by fabricating individual VSAs in each well of the 48-well tissue culture plate, following the same method described in Example 4 (FIG. 7A, step 1). (2) Divide the VSAs into two groups. (3) Treatment of VSAs in one group with free miR-146a (600 nM) by dilution of the stock solution into the culture medium 7 on day 0 (FIG. 7B, step 2). (4) The VSAs, treated or untreated, were co-cultured for 10 days. […]

[2] = test system: atherosclerosis-related gene expression of VSAs; assay: VSA gene assay (qRT-PCR)
Method: Experimental: To create a large-scale VSA high throughput culture system, individual VSAs were fabricated in each well of a 48-well tissue culture plate using the method described in Example 4 (FIG. 7A, step 1). The VSAs were then divided into two groups. One group was treated with rosuvastatin (10 uM) and sirolimus (10 nM) by diluting the stock solution into the “culture medium 7” containing monocytes on day 0 (FIG. 7B, step 2). The treated and untreated VSAs were co-cultured for 10 days with fresh culture medium 7 with monocytes added on day 3 and day 7, respectively. On day 10, RNA was extracted using the TRIzol™ reagent (Invitrogen) and purified using the Direct-Zol™ RNA Miniprep Plus kit following the protocol (Zymo Research). EDTA was added before phase separation to bind the calcium and help disintegrate the nanomatrix VSAs. The upper transparent aqueous phase was collected and RNA was suspended in nuclease-free water. The concentration and purity of RNA for each sample were determined using an ND-1000 UV spectrophotometer (Nanodrop). Complementary DNA was synthesized using 50 ng of RNA and reverse transcribed in a 2720 Thermo Cycler (Applied Biosystems) using a Verso cDNA Synthesis Kit (Thermo Fisher) according to the manufacturer's protocol. Samples were prepared in a 96-well PCR plate using the TaqMan Master Mix protocol. Each sample consisted of 2 μL of cDNA solution, 10 μL of 2× master mix, 7 μL of RNA-free water, and 1 μL of gene primer from a TaqMan Gene Expression Assay kit (Applied Biosytems). The PCR plate was run in a LightCycler 480 (Roche Life Science) for the following cycles: pre-incubation at 50° C. for 2 minutes and 95° C. for 10 min; amplification for 45 cycles, at 95° C. for 15 seconds, and 60° C. for 1 minute during each cycle; melting at 95° C. for 5 seconds and 65° C. for 1 minute, and cooling at 40° C. for 30 seconds.
Experimental: (1) Fabrication of VSA high throughput culture systems: the large-scale VSA high throughput culture system was achieved by fabricating individual VSAs in each well of the 48-well tissue culture plate, following the same method described in Example 4 (FIG. 7A, step 1). (2) Divide the VSAs into two groups. (3) Treatment of VSAs in one group with curcumin (200 uM) or colchicine (100 nM) by dilution of the stock solution into the “culture medium 7” containing monocytes on day 0 (FIG. 7B, step 2). (4) The VSAs, treated or untreated, were co-cultured for 10 days. A fresh culture medium 7 with monocytes was added to the co-culture system on day 3 and day 7, respectively. (5) RNA extraction and real-time qRT-PCR: On day 10, before phase separation, EDTA (Ethylenediaminetetraacetic acid) was added to bind the calcium and help disintegrate the nanomatrix VSAs. For phase separation, TRIzol™ reagent was added to the samples (>9 times of the sample volume) and incubated for 5 min. Then chloroform was added, mixed by shaking, and centrifuged (11,600 g, 15 min, 4° C.) to obtain phase separation. The upper transparent aqueous phase was collected and purified using the Direct-Zol™ RNA Miniprep Plus kit following the protocol. RNA was suspended in nuclease-free water, and an ND-1000 UV spectrophotometer was used to quantify the concentration and purity of RNA for each sample. Complementary DNA was then synthesized using 50 ng of RNA, which was reverse transcribed in a 2720 Thermo Cycler (Applied Biosystems) using a Verso cDNA Synthesis Kit according to the manufacturer's protocol. Samples were prepared in a 96-well PCR plate using the TaqMan Master Mix protocol. Each sample consisted of 2 μL of cDNA solution, 10 μL of 2× master mix, 7 μL of RNA-free water, and 1 μL of gene primer from a TaqMan Gene Expression Assay kit. […]

[3] = test system: cytokine secretion of VSAs; assay: VSA cytokine assay (ELISA of supernatant)
Method: (§1) Experimental: (1) Fabrication of VSA high throughput culture systems: large-scale VSA high throughput culture systems were achieved by fabricating individual VSAs in each well of the 48-well tissue culture plate, following the same method described in Example 4 (FIG. 7A, step 1). (2) Divide the VSAs into two groups. (3) Treatment of VSAs in one group with rosuvastatin (10 uM) or sirolimus (10 nM) by dilution of the stock solution into the culture medium 7 on day 0 (FIG. 7B, step 2). (4) The VSAs, treated or untreated, were culturing in culture medium 7 for 10 days. A fresh culture medium 7 was added to the co-culture system on day 3 and day 7, respectively. (5) ELISA: On day 10, the supernatant from VSAs was collected for ELISA to measure the significant inflammatory cytokine secretion.
as §1, with “systems: the” for “systems:”, “system was” for “systems were”, “curcumin (200” for “rosuvastatin (10”, “colchicine (100” for “sirolimus (10”, “cultured using” for “culturing in”, “measure” for “measure the significant”
as §1, with “systems: the” for “systems:”, “system was” for “systems were”, “free miR-146a (600 nM)” for “rosuvastatin (10 uM)”, “Lip-miR-146a (600” for “sirolimus (10”, “co-cultured” for “culturing in culture medium 7”, “Afresh” for “A fresh”

[4] = test system: cytokine secretion of VSAs; assay: VSA cytokine assay (ELISA of supernatant); remark: listed apart in the source
[5] = curcumin 200 uM, day 10, vs. control
[6] = colchicine 100 nM, day 10, vs. control
[7] = sirolimus 10 nM, day 10, of the control group
[8] = sirolimus 10 nM, day 10, relative to the control
[9] = rosuvastatin 10 uM, day 10, compared to the control
[10] = rosuvastatin 10 uM, day 10, vs. control

COc1cc(/C=C/C(=O)CC(=O)/C=C/c2ccc(O)c(OC)c2)ccc1O [curcumin]
foam cell generation (BODIPY) ([1]; curcumin 200 uM): 31.23±5.68%
MMP-2 gene expression [2, 5]: 39.22±7.14%
PECAM-1 gene expression [2, 5]: 29.71±5.68%
VEGF-A gene expression [2, 5]: 38.01±5.68%
IL-1α production [3, 5]: 80.58±4.91%
IL-10 production [3, 5]: 2.10±0.29 fold
IL-8 production [4, 5]: 40.90±5.72%
MCP-1 production [4, 5]: 76.87±3.35%

COc1cc2c(c(OC)c1OC)-c1ccc(OC)c(=O)cc1[C@@H](NC(C)=O)CC2 [colchicine]
foam cell generation (BODIPY) ([1]; colchicine 100 nM): 50.86±4.57%
COL3A1 gene expression [2, 6]: 8.93±1.30%
MMP-2 gene expression [2, 6]: 6.36±1.44%
PECAM-1 gene expression [2, 6]: 3.35±0.68 fold
IL-1α production ([3]; colchicine 100 nM, day 10): 71.31±5.84%
IL-4 production [3, 6]: 1.39±0.14 fold
IL-8 production [3, 6]: 42.57±1.80%
IFN-γ production [4, 6]: 61.95±7.79%
MCP-1 production [4, 6]: 26.31±1.77%
TNF-α production [4, 6]: 53.16±7.92%

CO[C@H]1C[C@@H]2CC[C@@H](C)[C@@](O)(O2)C(=O)C(=O)N2CCCC[C@H]2C(=O)O[C@H]([C@H](C)C[C@@H]2CC[C@@H](O)[C@H](OC)C2)CC(=O)[C@H](C)/C=C(\C)[C@@H](O)[C@@H](OC)C(=O)[C@H](C)C[C@H](C)/C=C/C=C/C=C/1C [sirolimus]
foam cell formation (BODIPY) ([1]; sirolimus 10 nM): 42.73±10.62%
IFN-γ production [4, 7]: 43.64±17.04%
MCP-1 production [4, 7]: 22.76±2.56%
TNF-α production [4, 7]: 40.67±6.42%
IL-4 secretion [4, 8]: 6.42±3.59 fold
IL-13 secretion [4, 8]: 1.67±0.59 fold

CC(C)c1nc(N(C)S(C)(=O)=O)nc(-c2ccc(F)cc2)c1/C=C/[C@@H](O)C[C@@H](O)CC(=O)O [rosuvastatin]
foam cell formation (BODIPY) ([1]; rosuvastatin 10 uM): 50.77±8.32%
MMP-2 gene expression [2, 9]: 4.46±1.75%
VEGF-A gene expression [2, 9]: significantly lower
IL-6 gene expression ([2]; rosuvastatin 10 uM, day 10, of control): 5.20±0.38%
COL17A1 gene expression [2, 10]: 127.03±35.49 fold
PECAM-1 gene expression [2, 10]: 146.76±44.63 fold
IFN-γ production [3, 10]: 44.03±3.20%
IL-1α production [3, 10]: 66.78±6.52%
IL-6 production [3, 10]: 71.50±4.34%
TNF-α production [3, 10]: 39.69±5.53%
IL-10 secretion ([4]; rosuvastatin 10 uM, day 10, compared with the control): 2.10±0.50 fold
IL-8 production [4, 10]: 48.64±6.17%
